Measurements reported in US8440653B2, “3-substituted-1,4-diazepan-2-one melanocortin-5 receptor antagonists” (Mimetica Pty Ltd, priority 2008, dated 2013).

Target: T1, human MC5R (hMC5R) (Homo sapiens, UniProt P33032)
T1 construct: purchased Perkin Elmer RBXMC5M400UA
Experiment: Human MC5R radioligand binding assay ([125I] NDP-MSH displacement)
Conditions: hMC5R membranes, [125I] NDP-MSH; tested as trifluoroacetate or hydrochloride salts or free bases; read-out: MC5R radioligand IC50
Experimental: Assessments of compound binding to human MC5R (hMC5R) by displacement of an ^125I-labeled NDP-MSH receptor ligand peptide were performed essentially as described in the data sheets produced by Perkin Elmer to accompany their frozen hMC5R membranes (Perkin Elmer catalog number RBXMC5M400UA).
Na^125I (0.5 mCi, 17.4 Ci/mg) was added to 50 μL sodium phosphate (50 mM, pH 7.4) in an eppendorf tube precoated with IODOGEN. After incubation for 10 mins the phosphate buffer containing the iodine was added to NDP-MSH (10 ul at 1 mg/mL) in a separate eppendorf tube. This was incubated for a further 10 mins. The iodinated NDP-MSH was purified by HPLC on a Zorbax SB 300 column using solvent A: 0.05% TFA and solvent B: 90% acetonitrile 0.045% TFA with a linear gradient, 0-67% B over 60 mins. The ^125I NDP-MSH eluted at 52 min after the unlabeled starting material (48 min) and was counted and stored in the freezer.
Incubation buffer: 25 mM HEPES-KOH (pH 7.0), 1.5 mM CaCl2, 1 mM MgSO4, 0.1 M NaCl, 1 mM 1,10-phenanthroline, and 1 Complete™ protease inhibitor tablet/100 mL (Roche, catalog number 1873580)
Perkin Elmer frozen hMC5 membranes: catalog number RBXMC5M400UA, 0.4 mL/vial; 400 microassays/vial. 0.78 mg/mL protein concentration
Vials of frozen membranes were thawed rapidly immediately before use, diluted with binding buffer and vortexed. Resuspended membranes were kept on ice until they were added to the wells of the plate.
Assays were performed in 96 well polypropylene plates. […] This was incubated for 1 hr at 37° C. […] Non-specific binding just under 5%.
Representative compounds of the present invention were tested for binding in the hMC5R assay as in Example 46, as listed in Table 3. The compounds were tested as their trifluoroacetate or hydrochloride salts, or as their free bases.

T1 sequence (P33032 whole entry): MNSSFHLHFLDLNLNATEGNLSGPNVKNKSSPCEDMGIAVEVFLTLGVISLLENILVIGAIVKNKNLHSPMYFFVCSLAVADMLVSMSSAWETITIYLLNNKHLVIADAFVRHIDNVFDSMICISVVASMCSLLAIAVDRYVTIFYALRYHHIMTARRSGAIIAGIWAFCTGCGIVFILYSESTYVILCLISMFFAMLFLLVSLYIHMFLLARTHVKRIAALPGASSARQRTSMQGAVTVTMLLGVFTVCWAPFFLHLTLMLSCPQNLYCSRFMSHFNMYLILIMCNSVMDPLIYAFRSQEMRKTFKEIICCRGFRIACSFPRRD

Compound | IC50 [nM]
O=C(/C=C/c1ccc(Cl)cc1)NC[C@@H]1CCN(CC(c2ccccc2)c2ccccc2)C(=O)[C@H](Cc2ccccn2)N1 [Compound 45, (E)-3-(4-chlorophenyl)-N-(((3S,5S)-1-(2,2-diphenylethyl)-2-oxo-3-(pyridin-2-ylmethyl)-1,4-diazepan-5-yl)methyl)acrylamide] | < 10000
N=C(N)NOCC[C@@H]1N[C@H](CNC(=O)c2ccc3ccccc3c2)CCN(CC(c2ccccc2)c2ccccc2)C1=O [Compound 46, N-(((3S,5S)-1-(2,2-diphenylethyl)-3-(2-(guanidinooxy)ethyl)-2-oxo-1,4-diazepan-5-yl)methyl)-2-naphthamide] | < 1000
O=C(NC[C@@H]1CCN(CC(c2ccccc2)c2ccccc2)C(=O)[C@H](Cc2cccnc2)N1)c1ccc2ccccc2c1 [Compound 47, N-(((3S,5S)-1-(2,2-diphenylethyl)-2-oxo-3-(pyridin-3-ylmethyl)-1,4-diazepan-5-yl)methyl)-2-naphthamide] | < 1000
O=C(NC[C@@H]1CCN(CC(c2ccccc2)c2ccccc2)C(=O)[C@H](Cc2ccncc2)N1)c1ccc2ccccc2c1 [Compound 48, N-(((3S,5S)-1-(2,2-diphenylethyl)-2-oxo-3-(pyridin-4-ylmethyl)-1,4-diazepan-5-yl)methyl)-2-naphthamide] | < 10000
CCCC[C@@H]1N[C@H](CNC(=O)c2ccc3ccccc3c2)CCN(CC(c2ccccc2)c2ccccc2)C1=O [Compound 49, N-(((3S,5S)-3-butyl-1-(2,2-diphenylethyl)-2-oxo-1,4-diazepan-5-yl)methyl)-2-naphthamide] | < 1000
NC(=O)CC[C@@H]1N[C@H](CNC(=O)c2ccc3ccccc3c2)CCN(CC(c2ccccc2)c2ccccc2)C1=O [Compound 52, N-(((3S,5S)-3-(3-amino-3-oxopropyl)-1-(2,2-diphenylethyl)-2-oxo-1,4-diazepan-5-yl)methyl)-2-naphthamide] | < 1000
O=C(NC[C@@H]1CCN(CC(c2ccccc2)c2ccccc2)C(=O)[C@H](CC2CCCCC2)N1)c1ccc2ccccc2c1 [Compound 53, N-(((3S,5S)-3-(cyclohexylmethyl)-1-(2,2-diphenylethyl)-2-oxo-1,4-diazepan-5-yl)methyl)-2-naphthamide] | < 1000
O=C(NC[C@@H]1CCN(CC(c2ccccc2)c2ccccc2)C(=O)[C@H](CCC(=O)N2CCCCC2)N1)c1ccc2ccccc2c1 [Compound 55, N-(((3S,5S)-1-(2,2-diphenylethyl)-2-oxo-3-(3-oxo-3-(piperidin-1-yl)propyl)-1,4-diazepan-5-yl)methyl)-2-naphthamide] | < 1000
O=C(NC[C@@H]1CCN(CC(c2ccccc2)c2ccccc2)C(=O)[C@H](CCc2ccccc2)N1)c1ccc2ccccc2c1 [Compound 57, N-(((3S,5S)-1-(2,2-diphenylethyl)-2-oxo-3-phenethyl-1,4-diazepan-5-yl)methyl)-2-naphthamide] | < 1000
O=C(NC[C@@H]1CCN(CC(c2ccccc2)c2ccccc2)C(=O)[C@H](CCC2CCCCC2)N1)c1ccc2ccccc2c1 [Compound 59, N-(((3S,5S)-3-(2-cyclohexylethyl)-1-(2,2-diphenylethyl)-2-oxo-1,4-diazepan-5-yl)methyl)-2-naphthamide] | < 1000
O=C(NC[C@@H]1CCN(CC(c2ccccc2)c2ccccc2)C(=O)[C@H](Cc2ccccc2)N1)c1ccc2ccccc2c1 [Compound 61, N-(((3S,5S)-3-benzyl-1-(2,2-diphenylethyl)-2-oxo-1,4-diazepan-5-yl)methyl)-2-naphthamide] | < 1000
O=C(/C=C/c1ccc(Cl)cc1)NC[C@@H]1CCN(CC(c2ccccc2)c2ccccc2)C(=O)[C@H](Cc2c[nH]cn2)N1 [Compound 63, (E)-N-(((3S,5S)-3-((1H-imidazol-4-yl)methyl)-1-(2,2-diphenylethyl)-2-oxo-1,4-diazepan-5-yl)methyl)-3-(4-chlorophenyl)acrylamide] | < 10000
O=C(/C=C/c1ccc(Cl)cc1)NC[C@@H]1CCN(CC(c2ccccc2)c2ccccc2)C(=O)[C@H](CC(=O)Nc2ccccn2)N1 [Compound 64, (E)-3-(4-chlorophenyl)-N-(((3S,5S)-1-(2,2-diphenylethyl)-2-oxo-3-(2-oxo-2-(pyridin-2-ylamino)ethyl)-1,4-diazepan-5-yl)methyl)acrylamide] | < 1000
O=C(/C=C/c1ccc(Cl)cc1)NC[C@@H]1CCN(CC(c2ccccc2)c2ccccc2)C(=O)[C@H](CC(=O)N2CCCCC2)N1 [Compound 65, (E)-3-(4-chlorophenyl)-N-(((3S,5S)-1-(2,2-diphenylethyl)-2-oxo-3-(2-oxo-2-(piperidin-1-yl)ethyl)-1,4-diazepan-5-yl)methyl)acrylamide] | < 1000
CC[C@H](CN1CC[C@@H](CNC(=O)c2ccc(Cl)c(Cl)c2)N[C@@H](CCC(=O)N2CCCCC2)C1=O)c1ccccc1 [Compound 67, 3,4-dichloro-N-(((3S,5S)-2-oxo-3-(3-oxo-3-(piperidin-1-yl)propyl)-1-((S)-2-phenylbutyl)-1,4-diazepan-5-yl)methyl)benzamide] | < 10000
Nc1ccccc1C[C@@H]1N[C@H](CNC(=O)/C=C/c2ccc(Cl)cc2)CCN(CC(c2ccccc2)c2ccccc2)C1=O [Compound 68] | < 1000
Nc1ccccc1C[C@@H]1N[C@H](CNC(=O)c2ccc3ccccc3c2)CCN(CC(c2ccccc2)c2ccccc2)C1=O [Compound 69, N-(((3S,5S)-3-(2-aminobenzyl)-1-(2,2-diphenylethyl)-2-oxo-1,4-diazepan-5-yl)methyl)-2-naphthamide] | < 1000
CCCC[C@@H]1N[C@H](CNC(=O)c2ccc3cc(Cl)ccc3c2)CCN(C[C@@H](CC)c2ccccc2)C1=O [Compound 70, N-(((3S,5S)-3-butyl-2-oxo-1-((S)-2-phenylbutyl)-1,4-diazepan-5-yl)methyl)-6-chloro-2-naphthamide] | < 1000
O=C(NC[C@@H]1CCN(CC(c2ccccc2)c2ccccc2)C(=O)[C@H](Cc2ccccc2N2CCCCC2)N1)c1ccc2ccccc2c1 [Compound 71, N-(((3S,5S)-1-(2,2-diphenylethyl)-2-oxo-3-(2-(piperidin-1-yl)benzyl)-1,4-diazepan-5-yl)methyl)-2-naphthamide] | < 10000
CCCCN(C)C(=O)CC[C@@H]1N[C@H](CNC(=O)c2ccc3ccccc3c2)CCN(C[C@@H](CC)c2ccccc2)C1=O [Compound 72, N-(((3S,5S)-3-(3-(butyl(methyl)amino)-3-oxopropyl)-2-oxo-1-((S)-2-phenylbutyl)-1,4-diazepan-5-yl)methyl)-2-naphthamide] | < 1000
CC[C@H](CN1CC[C@@H](CNC(=O)c2ccc3ccccc3c2)N[C@@H](CCC(=O)NC2CCCCC2)C1=O)c1ccccc1 [Compound 73, N-(((3S,5S)-3-(3-(cyclohexylamino)-3-oxopropyl)-2-oxo-1-((S)-2-phenylbutyl)-1,4-diazepan-5-yl)methyl)-2-naphthamide] | < 1000
CC[C@H](CN1CC[C@@H](CNC(=O)c2ccc3cc(Cl)ccc3c2)N[C@@H](CCC2CCCCC2)C1=O)c1ccccc1 [Compound 74, 6-chloro-N-(((3S,5S)-3-(2-cyclohexylethyl)-2-oxo-1-((S)-2-phenylbutyl)-1,4-diazepan-5-yl)methyl)-2-naphthamide] | < 10000
CCCCCC[C@@H]1N[C@H](CNC(=O)c2ccc3cc(Cl)ccc3c2)CCN(C[C@@H](CC)c2ccccc2)C1=O [Compound 75, 6-chloro-N-(((3S,5S)-3-hexyl-2-oxo-1-((S)-2-phenylbutyl)-1,4-diazepan-5-yl)methyl)-2-naphthamide] | < 100
CC[C@H](CN1CC[C@@H](CNC(=O)c2ccc3cc(Cl)ccc3c2)N[C@@H](CCCCO)C1=O)c1ccccc1 [Compound 76, 6-chloro-N-(((3S,5S)-3-(4-hydroxybutyl)-2-oxo-1-((S)-2-phenylbutyl)-1,4-diazepan-5-yl)methyl)-2-naphthamide] | < 100
CC[C@H](CN1CC[C@@H](CNC(=O)c2ccc3cc(Cl)ccc3c2)N[C@@H](CCOC)C1=O)c1ccccc1 [Compound 77, 6-chloro-N-(((3S,5S)-3-(2-methoxyethyl)-2-oxo-1-((S)-2-phenylbutyl)-1,4-diazepan-5-yl)methyl)-2-naphthamide] | < 100
CC[C@H](CN1CC[C@@H](CNC(=O)c2ccc3cc(Cl)ccc3c2)N[C@@H](CCOCc2ccccc2)C1=O)c1ccccc1 [Compound 78, N-(((3S,5S)-3-(2-(benzyloxy)ethyl)-2-oxo-1-((S)-2-phenylbutyl)-1,4-diazepan-5-yl)methyl)-6-chloro-2-naphthamide] | < 10000
CC[C@H](CN1CC[C@@H](CNC(=O)c2ccc3cc(Cl)ccc3c2)N[C@@H](CC(C)C)C1=O)c1ccccc1 [Compound 79, 6-chloro-N-(((3S,5S)-3-isobutyl-2-oxo-1-((S)-2-phenylbutyl)-1,4-diazepan-5-yl)methyl)-2-naphthamide] | < 10000
